Reference: patent US8445501B2, “Substituted 7-carboxamido-pyrrolo[3,2-d]pyrimidines” (Takeda GmbH, priority 2008, dated 2013)

Target: T1, human PDE5 (Homo sapiens, UniProt O76074)
T1 construct: from tissue; host or cells: platelets from fresh blood of human donors (lysate, 10,000 g supernatant)
Assay: Inhibition of the type 5 phosphodiesterase (PDE5) activity, modified SPA test with platelet lysate
Format: biochemical
Details: PDE5 from human platelet lysate, 0.5 μM cGMP
Procedure, shortened: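 Human platelet lysate (10,000 g supernatant) as PDE5 source in SPA with 0.5 μM cGMP plus [3H]cGMP tracer, pH 7.4, 5 mM Mg2+, 1 μM motapizone and 10 nM PDE2 inhibitor; 10–20% conversion. 5 min preincubation, 15 min at 37 °C, stopped with SPA beads/IBMX. IC50 by non-linear regression.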

| SMILES | IC50 |
| --- | --- |
| CCCOc1ccc2c(c1-c1ncnc3c(C(=O)NC4CCN(C(=O)[C@H](C)O)CC4)c[nH]c13)OCO2 [Example 251, 4-(5-Propoxy-benzo[1,3]dioxol-4-yl)-5H-pyrrolo[3,2-d]pyrimidine-7-carboxylic acid [1-((S)-2-hydroxy-propionyl)piperidin-4-yl]-amide] | 0.363 nM |
| CCCOc1ccc2c(c1-c1ncnc3c(C(=O)N[C@@H]4CCN(C(=O)[C@H](C)O)C4)c[nH]c13)OCO2 [Example 252, 4-(5-Propoxy-benzo[1,3]dioxol-4-yl)-5H-pyrrolo[3,2-d]pyrimidine-7-carboxylic acid [(R)-1-((S)-2-hydroxy-propionyl)-pyrrolidin-3-yl]amide] | 1.2 nM |
| CCCCOc1ccc2c(c1-c1ncnc3c(C(=O)NC4CCN(C(=O)[C@H](C)O)CC4)c[nH]c13)OCO2 [Example 253, 4-(5-Butoxy-benzo[1,3]dioxol-4-yl)-5H-pyrrolo[3,2-d]pyrimidine-7-carboxylic acid [1-((S)-2-hydroxy-propionyl)-piperidin-4-yl]-amide] | 0.17 nM |
| CCCCOc1ccc2c(c1-c1ncnc3c(C(=O)N[C@@H]4CCN(C(=O)[C@H](C)O)C4)c[nH]c13)OCO2 [Example 254, 4-(5-Butoxy-benzo[1,3]dioxol-4-yl)-5H-pyrrolo[3,2-d]pyrimidine-7-carboxylic acid [(R)-1-((S)-2-hydroxy-propionyl)-pyrrolidin-3-yl]amide] | 0.589 nM |
| COCCOc1cc(OC)ccc1-c1ncnc2c(C(=O)N[C@H]3CC[C@H](NC(=O)CO)CC3)c[nH]c12 [Example 255, trans-4-[4-Methoxy-2-(2-methoxy-ethoxy)-phenyl]-5H-pyrrolo[3,2-d]pyrimidine-7-carboxylic acid [4-(2-hydroxy-acetylamino)-cyclohexyl]-amide] | 13.5 nM |
| COCCOc1cc(OC)ccc1-c1ncnc2c(C(=O)N[C@H]3CC[C@H](NC(=O)[C@H](C)O)CC3)c[nH]c12 [Example 256, trans-4-[4-Methoxy-2-(2-methoxy-ethoxy)-phenyl]-5H-pyrrolo[3,2-d]pyrimidine-7-carboxylic acid [4-((S)-2-hydroxy-propionylamino)-cyclohexyl]-amide] | 12 nM |
| COCCOc1cc(OC)ccc1-c1ncnc2c(C(=O)N[C@H]3CC[C@H](NC(=O)C4(O)CC4)CC3)c[nH]c12 [Example 257, trans-4-[4-Methoxy-2-(2-methoxy-ethoxy)-phenyl]-5H-pyrrolo[3,2-d]pyrimidine-7-carboxylic acid {-[(1-hydroxy-cyclopropanecarbonyl)-amino]-cyclohexyl}-amide] | 9.33 nM |
| COCCOc1cc(OC)ccc1-c1ncnc2c(C(=O)N[C@H]3CC[C@@H](NC(=O)C4(O)CC4)CC3)c[nH]c12 [Example 258, cis-4-[4-Methoxy-2-(2-methoxy-ethoxy)-phenyl]-5H-pyrrolo[3,2-d]pyrimidine-7-carboxylic acid {-[(1-hydroxy-cyclopropanecarbonyl)-amino]-cyclohexyl}-amide] | 6.31 nM |
| COCCOc1cc(OC)ccc1-c1ncnc2c(C(=O)NC3CCN(C(=O)C4(O)CC4)CC3)c[nH]c12 [Example 259, 4-[4-Methoxy-2-(2-methoxy-ethoxy)-phenyl]-5H-pyrrolo[3,2-d]pyrimidine-7-carboxylic acid [1-(1-hydroxy-cyclopropanecarbonyl)-piperidin-4-yl]-amide] | 8.51 nM |
| COCCOc1ccc2c(c1-c1ncnc3c(C(=O)N[C@H]4CC[C@H](NC(=O)CO)CC4)c[nH]c13)OCO2 [Example 260, trans-4-[5-(2-Methoxy-ethoxy)-benzo[1,3]dioxol-4-yl]-5H-pyrrolo[3,2-d]pyrimidine-7-carboxylic acid [4-(2-hydroxy-acetylamino)-cyclohexyl]-amide] | 4.79 nM |
| COCCOc1ccc2c(c1-c1ncnc3c(C(=O)N[C@H]4CC[C@@H](NC(=O)CO)CC4)c[nH]c13)OCO2 [Example 261, cis-4-[5-(2-Methoxy-ethoxy)-benzo[1,3]dioxol-4-yl]-5H-pyrrolo[3,2-d]pyrimidine-7-carboxylic acid [4-(2-hydroxy-acetylamino)-cyclohexyl]-amide] | 11 nM |
| COCCOc1ccc2c(c1-c1ncnc3c(C(=O)N[C@H]4CC[C@@H](NC(=O)[C@H](C)O)CC4)c[nH]c13)OCO2 [Example 262, cis-4-[5-(2-Methoxy-ethoxy)-benzo[1,3]dioxol-4-yl]-5H-pyrrolo[3,2-d]pyrimidine-7-carboxylic acid [4-((S)-2-hydroxy-propionylamino)-cyclohexyl]-amide] | 9.33 nM |
| COCCOc1ccc2c(c1-c1ncnc3c(C(=O)NC4CCN(C(=O)[C@H](C)O)CC4)c[nH]c13)OCO2 [Example 263, 4-[5-(2-Methoxy-ethoxy)-benzo[1,3]dioxol-4-yl]-5H-pyrrolo[3,2-d]pyrimidine-7-carboxylic acid [1-((S)-2-hydroxy-propionyl)piperidin-4-yl]-amide] | 10 nM |
| CC(=O)c1ccc(OCC2CC2)c(-c2ncnc3c(C(=O)NC4CCN(C(=O)[C@H](C)O)CC4)c[nH]c23)c1 [Example 264, 4-(5-Acetyl-2-cyclopropylmethoxy-phenyl)-5H-pyrrolo[3,2-d]pyrimidine-7-carboxylic acid [1-((S)-2-hydroxy-propanoyl)piperidin-4-yl]-amide] | 0.219 nM |
| COCC(=O)N1CCC(NC(=O)c2c[nH]c3c(-c4cc(C(C)=O)ccc4OCC4CC4)ncnc23)CC1 [Example 265, 4-(5-Acetyl-2-cyclopropylmethoxy-phenyl)-5H-pyrrolo[3,2-d]pyrimidine-7-carboxylic acid [1-(2-methoxy-acetyl)piperidin-4-yl]-amide] | 0.288 nM |
| CC(=O)c1ccc(OCC2CC2)c(-c2ncnc3c(C(=O)NC4CCN(C(C)=O)CC4)c[nH]c23)c1 [Example 266, 4-(5-Acetyl-2-cyclopropylmethoxy-phenyl)-5H-pyrrolo[3,2-d]pyrimidine-7-carboxylic acid (1-acetyl-piperidin-4-yl)-amide] | 0.0794 nM |
| CC(=O)c1cc(-c2ncnc3c(C(=O)NC4CCN(C(=O)[C@H](C)O)CC4)c[nH]c23)c(OCC2CC2)cc1C [Example 267, 4-(5-Acetyl-2-cyclopropylmethoxy-4-methyl-phenyl)-5H-pyrrolo[3,2-d]pyrimidine-7-carboxylic acid [1-((S)-2-hydroxy-propionyl)piperidin-4-yl]-amide] | 0.324 nM |
| CC(=O)c1cc(-c2ncnc3c(C(=O)NC4CCN(C(C)=O)CC4)c[nH]c23)c(OCC2CC2)cc1C [Example 268, 4-(5-Acetyl-2-cyclopropylmethoxy-4-methyl-phenyl)-5H-pyrrolo[3,2-d]pyrimidine-7-carboxylic acid (1-acetyl-piperidin-4-yl)-amide] | 0.794 nM |
| COCCNC(=O)[C@H]1CC[C@H](NC(=O)c2c[nH]c3c(-c4c(OCC5CC5)ccc5c4OCO5)ncnc23)CC1 [Example 269, trans-4-(5-Cyclopropylmethoxy-benzo[1,3]dioxol-4-yl)-5H-pyrrolo[3,2-d]pyrimidine-7-carboxylic acid [4-(2-methoxy-ethylcarbamoyl)-cyclohexyl]-amide] | 0.575 nM |
| O=C(N[C@H]1CC[C@H](C(=O)NC2CC2)CC1)c1c[nH]c2c(-c3c(OCC4CC4)ccc4c3OCO4)ncnc12 [Example 270, trans-4-(5-Cyclopropylmethoxy-benzo[1,3]dioxol-4-yl)-5H-pyrrolo[3,2-d]pyrimidine-7-carboxylic acid (4-cyclopropylcarbamoyl-cyclohexyl)-amide] | 0.191 nM |
